# pEC50: −log10 of the molar value.
# Legend:
# Type in all cases: cell-based
# [1] = target: T1, human S1P1 receptor (S1PR1) (Homo sapiens, UniProt P21453); assay: Intracellular Ca2+ release (method 1), agonist potency, S1P1; details: CHO-K1 cells expressing human S1PR1; cells given as bound
# T1 construct: host or cells: CHO-K1
# Procedure: (§1) Agonistic activity and efficacy of compounds was assessed in recombinant cells using method 1 described below.
# (§2) Agonist potency and efficacy were assessed by measurement of intracellular Ca^2+ release. Recombinant CHO-K1 cells (Euroscreen, Brussels, Belgium) expressing human S1PR5, S1PR1, S1PR3 or S1PR4 receptors, aequorin, and GTP binding protein Gq/i5 were cultured using a medium containing nutrient mixture F-12 Ham (Sigma-Aldrich) with 10% FBS, and 100 μg/mL gentamicin and equilibrated at 5% CO2.
# (§3) 15,000 cells in 20 μL medium were seeded into Biocoat poly-D-Lysine coated 384 well plates (Becton Dickinson #35-6663) and grown to 95% confluency after 24 h.
# (§4) Culture medium was replaced by an assay buffer consisting of HBBS with Ca^2+ and Mg^2+ (Invitrogen #14025-050), 20 mmol/L Hepes (Sigma-Aldrich #H-3375), 2.5 mmol/L probenecid (Sigma-Aldrich #P-8761, and 0.1% BSA (Sigma-Aldrich #A-7030) pH 7.4. The Calcium 5 no-wash FLIPR assay kit (Molecular Devices #5000625) was performed as described in the kit instructions. Cells were incubated with Calcium 5 dye for 1 h at 37° C., 5% CO2 in the dark. After 45 min adaptation to RT assessment of agonist stimulation of intracellular Ca^2+ release was performed by addition of test compounds at various concentrations obtained by serial dilution. Phospho-fingolimod was used as positive control and reference agonist (intrinsic activity 100%).
# (§5) Agonism of test compounds at the human S1Px receptors were characterized by the EC50 values (potencies) deduced from a nonlinear 4 parametric logistic curve fit to the measured fluorescence data after normalization to the lower and upper plateaus of the fitted reference agonist's (phospho-fingolimod)effect curve and by their efficacy (Emax) values represented by their maximum achievable effects in % of the reference agonist's efficacy, which is defined as an Emax of 100%.
# [2] = target: T2, human S1P5 receptor (S1PR5) (Homo sapiens, UniProt Q9H228); assay: Intracellular Ca2+ release (method 1), agonist potency and efficacy, S1P5; details: for Emax: read-out: hS1P5 EMax; for pEC50: recombinant CHO-K1 cells expressing human S1PR5, aequorin, Gq/i5, Ca2+ release, read-out: S1P5 EC50 range
# T2 construct: host or cells: CHO-K1
# Procedure: as §1, §2, §3, §4, §5
# [3] = target: T3, human S1P4 receptor (S1PR4) (Homo sapiens, UniProt O95977); assay: Intracellular Ca2+ release (method 1), agonist potency, S1P4; details: CHO-K1 cells expressing human S1PR4
# T3 construct: host or cells: CHO-K1
# T3 sequence (O95977 1-384): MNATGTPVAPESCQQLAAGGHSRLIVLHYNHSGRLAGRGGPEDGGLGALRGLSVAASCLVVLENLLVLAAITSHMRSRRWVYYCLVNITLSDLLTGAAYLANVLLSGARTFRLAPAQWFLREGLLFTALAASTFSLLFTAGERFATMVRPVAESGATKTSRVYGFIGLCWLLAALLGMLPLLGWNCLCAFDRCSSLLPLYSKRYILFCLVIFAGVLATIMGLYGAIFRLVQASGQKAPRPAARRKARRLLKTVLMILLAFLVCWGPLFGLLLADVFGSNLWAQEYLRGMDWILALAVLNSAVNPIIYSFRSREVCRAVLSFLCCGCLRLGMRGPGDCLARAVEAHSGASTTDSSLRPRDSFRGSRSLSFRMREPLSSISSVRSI
# Procedure: as §1, §2, §3, §4, §5
# [4] = maximum effect in % of reference agonist phospho-fingolimod (100%)
# T2 sequence (Q9H228 whole entry): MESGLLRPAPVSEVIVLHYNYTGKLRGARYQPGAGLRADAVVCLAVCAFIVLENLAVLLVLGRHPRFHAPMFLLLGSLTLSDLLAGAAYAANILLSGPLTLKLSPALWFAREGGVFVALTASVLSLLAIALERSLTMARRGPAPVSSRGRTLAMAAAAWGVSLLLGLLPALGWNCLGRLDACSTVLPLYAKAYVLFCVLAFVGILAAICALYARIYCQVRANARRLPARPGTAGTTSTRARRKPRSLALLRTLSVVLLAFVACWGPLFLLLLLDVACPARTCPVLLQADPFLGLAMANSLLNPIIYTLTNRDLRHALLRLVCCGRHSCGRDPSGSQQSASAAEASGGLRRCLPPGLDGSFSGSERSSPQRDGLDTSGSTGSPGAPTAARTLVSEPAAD
# T1 sequence (P21453 whole entry): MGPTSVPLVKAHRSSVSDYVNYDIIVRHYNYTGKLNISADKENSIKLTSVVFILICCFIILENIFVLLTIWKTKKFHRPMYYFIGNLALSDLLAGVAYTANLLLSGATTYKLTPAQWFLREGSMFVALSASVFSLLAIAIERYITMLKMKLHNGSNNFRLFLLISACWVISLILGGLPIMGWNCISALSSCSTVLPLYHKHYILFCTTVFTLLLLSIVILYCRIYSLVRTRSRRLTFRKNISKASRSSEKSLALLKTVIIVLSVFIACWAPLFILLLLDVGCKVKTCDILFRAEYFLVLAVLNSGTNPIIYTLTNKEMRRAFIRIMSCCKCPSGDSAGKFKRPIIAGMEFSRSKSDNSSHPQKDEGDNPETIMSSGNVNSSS
SMILES,pEC50 [1],"Emax [2, 4] [%]",pEC50 [2],pEC50 ([3]; cells given as bound),pEC50 [3],"hS1P5 EMax [2, 4]"
"O=C(O)CCCN1Cc2ccc(C#Cc3ccc(=O)n(CC4CC4)c3)cc2C2(CC2)C1 [Compound 4, 4-(6′-((1-(cyclopropylmethyl)-6-oxo-1,6-dihydropyridin-3-yl)ethynyl)-1′H-spiro[cyclopropane-1,4′-isoquinolin]-2′(3′H)-yl)butanoic acid]",< 6.00,50 to 100,5.00 to 6.00,< 6.00,,
"CCOc1ccc(C#Cc2ccc3c(c2)C2(CC2)CN(CC(=O)O)C3)cc1 [Compound 5, 2′-(carboxymethyl)-6′-((4-ethoxyphenyl)ethynyl)-2′,3′-dihydro-1′H-spiro[cyclopropane-1,4′-isoquinolin]-2′-ium 2,2,2-trifluoroacetate]",< 6.00,50 to 100,6.00 to 7.00,< 6.00,,
"CC(C)c1ccc(C#Cc2ccc3c(c2)C2(CC2)CN(CC(=O)O)C3)cc1 [Compound 6, 2′-(carboxymethyl)-6′-((4-isopropylphenyl)ethynyl)-2′,3′-dihydro-1′H-spiro[cyclopropane-1,4′-isoquinolin]-2′-ium 2,2,2-trifluoroacetate]",< 6.00,> 100,6.00 to 7.00,< 6.00,,
"CC(C)Oc1ccc(C#Cc2ccc3c(c2)C2(CC2)CN(CC2(C(=O)O)CC2)C3)cc1 [Compound 8, 1-((6′-((4-isopropoxyphenyl)ethynyl)-1′H-spiro[cyclopropane-1,4′-isoquinolin]-2′(3′H)-yl)methyl)cyclopropanecarboxylic acid]",< 6.00,50 to 100,6.00 to 7.00,< 6.00,,
"O=C(O)C1(CN2Cc3ccc(C#Cc4ccc(OC5CCCC5)nc4)cc3C3(CC3)C2)CC1 [Compound 9, 1-((6′-((6-(cyclopentyloxy)pyridin-3-yl)ethynyl)-1′H-spiro[cyclopropane-1,4′-isoquinolin]-2′(3′H)-yl)methyl)cyclopropanecarboxylic acid]",< 6.00,> 100,6.00 to 7.00,< 6.00,,
"O=C(O)CN1Cc2ccc(OCc3c(Cl)cccc3Cl)cc2C2(CC2)C1 [Compound 12, 2-(6′-((2,6-Dichlorobenzyl)oxy)-1′H-spiro[cyclopropane-1,4′-isoquinolin]-2′(3′H)-yl)acetic acid]",< 6.00,50 to 100,6.00 to 7.00,,6.00 to 7.00,
"O=C(O)CCCN1Cc2ccc(OCc3ccc(Cl)cc3)cc2C2(CC2)C1 [Compound 16, 4-(6′-((4-Chlorobenzyl)oxy)-1′H-spiro[cyclopropane-1,4′-isoquinolin]-2′(3′H)-yl)butanoic acid]",< 6.00,< 50,6.00 to 7.00,,6.00 to 7.00,
"O=C(O)CCCN1Cc2ccc(OCc3ccc(F)cc3)cc2C2(CC2)C1 [Compound 17, 4-(6′-((4-Fluorobenzyl)oxy)-1′H-spiro[cyclopropane-1,4′-isoquinolin]-2′(3′H)-yl)butanoic acid]",< 6.00,50 to 100,6.00 to 7.00,< 6.00,,
"CC(=O)O.O=C(O)CCN1Cc2ccc(C#Cc3c(Cl)cccc3Cl)cc2C2(CC2)C1 [Compound 30, 3-(6′-((2,6-dichlorophenyl)ethynyl)-1′H-spiro[cyclopropane-1,4′-isoquinolin]-2′(3′H)-yl)propanoic acid acetic acid salt (1:1)]",,,,,6.00 to 7.00,"++ (EMax = 50-100, determined with method 1)"
"CCOc1cc(C)c(C#Cc2ccc3c(c2)C2(CC2)CN(CCCC(=O)O)C3)cn1 [Compound 49, 4-(6′-((6-ethoxy-4-methylpyridin-3-yl)ethynyl)-1′H-spiro[cyclopropane-1,4′-isoquinolin]-2′(3′H)-yl)butanoic acid]",< 6.00,50 to 100,7.00 to 8.00,< 6.00,,
"CCOc1ccc(C#Cc2ccc3c(c2)C2(CC2)CN(CCCC(=O)O)C3)cn1 [Compound 50, 4-(6′-((6-ethoxypyridin-3-yl)ethynyl)-1′H-spiro[cyclopropane-1,4′-isoquinolin]-2′(3′H)-yl)butanoic acid]",< 6.00,50 to 100,6.00 to 7.00,< 6.00,,
"CCOc1ncc(C#Cc2ccc3c(c2)C2(CC2)CN(CCCC(=O)O)C3)cc1F [Compound 51, 4-(6′-((6-ethoxy-5-fluoropyridin-3-yl)ethynyl)-1′H-spiro[cyclopropane-1,4′-isoquinolin]-2′(3′H)-yl)butanoic acid]",< 6.00,50 to 100,6.00 to 7.00,< 6.00,,
"CC(C)Oc1ccc(C#Cc2ccc3c(c2)C2(CC2)CN(CCCC(=O)O)C3)nc1 [Compound 52, 4-(6′-((5-isopropoxypyridin-2-yl)ethynyl)-1′H-spiro[cyclopropane-1,4′-isoquinolin]-2′(3′H)-yl)butanoic acid]",< 6.00,> 100,6.00 to 7.00,< 6.00,,
"CCOc1ccc(C#Cc2ccc3c(c2)C2(CC2)CN(CCCC(=O)O)C3)c(C)n1 [Compound 53, 4-(6′-((6-ethoxy-2-methylpyridin-3-yl)ethynyl)-1′H-spiro[cyclopropane-1,4′-isoquinolin]-2′(3′H)-yl)butanoic acid]",< 6.00,50 to 100,6.00 to 7.00,< 6.00,,
"CCOc1ccc(C#Cc2ccc3c(c2)C2(CC2)CN(CCCC(=O)O)C3)nc1 [Compound 54, 4-(6′-((5-ethoxypyridin-2-yl)ethynyl)-1′H-spiro[cyclopropane-1,4′-isoquinolin]-2′(3′H)-yl)butanoic acid]",< 6.00,50 to 100,5.00 to 6.00,< 6.00,,
"COc1ncc(C#Cc2ccc3c(c2)C2(CC2)CN(CCCC(=O)O)C3)cc1F [Compound 55, 4-(6′-((5-fluoro-6-methoxypyridin-3-yl)ethynyl)-1′H-spiro[cyclopropane-1,4′-isoquinolin]-2′(3′H)-yl)butanoic acid]",< 6.00,< 50,5.00 to 6.00,< 6.00,,
"O=C(O)CCCN1Cc2ccc(C#Cc3ccc4c(c3)OCO4)cc2C2(CC2)C1 [Compound 56, 4-(6′-(benzo[d][1,3]dioxol-5-ylethynyl)-1′H-spiro[cyclopropane-1,4′-isoquinolin]-2′(3′H)-yl)butanoic acid]",< 6.00,50 to 100,5.00 to 6.00,< 6.00,,
"COc1ccc(C#Cc2ccc3c(c2)C2(CC2)CN(CCCC(=O)O)C3)c(C)n1 [Compound 57, 4-(6′-((6-methoxy-2-methylpyridin-3-yl)ethynyl)-1′H-spiro[cyclopropane-1,4′-isoquinolin]-2′(3′H)-yl)butanoic acid]",< 6.00,50 to 100,5.00 to 6.00,< 6.00,,
"CC(CC(=O)O)CN1Cc2ccc(C#Cc3ccc(OC(C)C)nc3)cc2C2(CC2)C1 (stereo not drawn) [Compound 59, 4-(6′-((6-isopropoxypyridin-3-yl)ethynyl)-1′H-spiro[cyclopropane-1,4′-isoquinolin]-2′(3′H)-yl)-3-methylbutanoic acid]",< 6.00,50 to 100,> 8.00,< 6.00,,
"CC(CC(=O)O)CN1Cc2ccc(C#Cc3ccc(C(C)C)cc3)cc2C2(CC2)C1 (stereo not drawn) [Compound 60, 4-(6′-((4-isopropylphenyl)ethynyl)-1′H-spiro[cyclopropane-1,4′-isoquinolin]-2′(3′H)-yl)-3-methylbutanoic acid]",< 6.00,50 to 100,> 8.00,< 6.00,,
